Earlier results, collected in US8575201B2 (Boehringer Ingelheim International GmbH, priority 2010, dated 2013).

Key:
[1] = tested on: biomarkers for myocardial infarction risk; conditions: clinical trial; cited from earlier work
[2] = tested on: proteinuria; conditions: clinical trial, human glomerulonephritis; cited from earlier work

**Q.** With O=C(O)[C@@H](c1ccc(OCc2ccc3ccccc3n2)cc1)C1CCCC1 [DG-031] as the molecule, how does the “effect on biomarkers for myocardial infarction risk” value [1] read?
**A.** dose-dependent suppression of several biomarkers

**Q.** With CC(C)(C)Sc1c(CC(C)(C)C(=O)O)n(Cc2ccc(Cl)cc2)c2ccc(OCc3ccc4ccccc4n3)cc12 [MK-591] as the molecule, how does the effect on proteinuria [2] read?
**A.** reduce proteinuria
